This passage reports IC50 results from US8871767B2, “2-arylimidazo[1,2-B]pyridazine, 2-phenylimidazo[1,2-A]pyridine, and 2-phenylimidazo[1,2-A]pyrazine derivatives” (Hengrui (USA) Ltd., priority 2010, dated 2014).

For test [1], the system named is Hedgehog pathway activation on 10T1/2/Smo#3 cells (C3H10T1/2 cells transfected with human Smoothened receptor). In words: Hedgehog pathway activation on 10T1/2/Smo#3 cells measured by ALP activity. In kind it is cell-based. The essentials: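 C3H10T1/2 cells stably expressing human Smoothened were activated with hShh-conditioned medium (10-20%) or 500 nM SAG, with test compounds present. Pathway block read as inhibited ALP activity (4-methylumbelliferyl phosphate fluorescence); viability checked by CellTiter-Blue. IC50 values reported.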

In test [2] the test system is Hedgehog pathway activation (GLi-luciferase reporter) in Shh Light II reporter cells. In words: Hedgehog pathway activation on Shh Light II reporter cells measured by luciferase activity. In kind it is cell-based. The essentials:
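Shh Light II reporter cells carrying a hedgehog-responsive GLi-luciferase reporter were stimulated either with 500 nM SAG, a direct Smoothened agonist, or with conditioned media containing human Sonic Hedgehog (hShh). Test compounds were evaluated for blocking this pathway activation, quantified by luciferase activity. Cell viability was monitored in parallel with the Celltiter-Blue® assay.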

[3] abbreviates: Mus musculus, C3H 10T1/2, 10T1/2/Smo#3 cells, hShh activation, ALP activity, read-out: 10T1/2/Smo#3 ALP activity (hShh Activation).
[4] abbreviates: Mus musculus, C3H 10T1/2, 10T1/2/Smo#3 cells, measured by ALP activity, read-out: ALP (IC50, inhibition of Hedgehog pathway activation).
Where [5] appears, read: Mus musculus, Shh Light II, SAG activation (500 nM SAG), read-out: Shh Light II luciferase activity (SAG activation).
The mark [6] stands for this setting: Mus musculus, Shh Light II, hShh activation, read-out: Shh (IC50, inhibition of Hedgehog pathway activation).
[7] abbreviates: Mus musculus, Shh Light II, hShh activation, read-out: Shh Light II luciferase activity (hShh activation).

Each structure is given as a SMILES string. Read-outs that look alike come from different tables or passages of the source.

As for `CCCC(C)(C)C(=O)Nc1cc(-c2cn3nc(-c4cccnc4C(F)(F)F)ccc3n2)c(F)cc1Cl` [Example 662, N-(2-chloro-4-fluoro-5-(6-(2-(trifluoromethyl)pyridin-3-yl)imidazo[1,2-b]pyridazin-2-yl)phenyl)-2,2-dimethylpentanamide], the IC50 in test [1] (setting [3]) was less than 0.3 µM; in test [1] (setting [4]) it was 0.161 µM; in test [2] (setting [5]) it was less than 0.3 µM; in test [2] (setting [6]) it was 0.039 µM; in test [2] (setting [7]), less than 0.3 µM.
Consider `Cc1ccc(-c2cn3nc(-c4cc(C#N)ccc4C(F)(F)F)ccc3n2)cc1NC(=O)C(C)(C)C` [compound 596], for which the IC50 was 0.094 µM in test [1] (setting [4]) and 0.018 µM in test [2] (setting [6]).
Turning to `CC(C)(C)CC(=O)Nc1cc(-c2cn3nc(-c4cccnc4C(F)(F)F)ccc3n2)ccc1F` [Example 679, N-(2-fluoro-5-(6-(2-(trifluoromethyl)pyridin-3-yl)imidazo[1,2-b]pyridazin-2-yl)phenyl)-3,3-dimethylbutanamide], the results for the IC50 in test [1] (setting [4]) and in test [2] (setting [6]) were 0.658 µM and 0.254 µM, respectively.
As to `CCOc1ccc2nc(-c3ccc(C(F)(F)F)c(S(=O)(=O)NC4CC4)c3)cn2n1` [Example 212, N-cyclopropyl-5-(6-ethoxyimidazo[1,2-b]pyridazin-2-yl)-2-(trifluoromethyl)benzenesulfonamide], the IC50 in test [1] (setting [3]) was 3 to 30 µM; in test [1] (setting [4]), 5.76 µM; in test [2] (setting [5]), 3 to 30 µM; in test [2] (setting [6]), more than 10 µM; in test [2] (setting [7]) it was 3 to 30 µM.
Regarding `CCOC(=O)CCCOc1ccc(-c2ccc3nc(-c4ccc(C)c(NC(=O)C(C)(C)C)c4)cn3n2)c(C(F)(F)F)n1` [Example 432, ethyl 4-(5-(2-(4-methyl-3-pivalamidophenyl)imidazo[1,2-b]pyridazin-6-yl)-6-(trifluoromethyl)pyridin-2-yloxy)butanoate], the IC50 amounted to 0.675 µM in test [1] (setting [4]) and 0.121 µM in test [2] (setting [6]).
Taken in the same sequence, the figures for `O=C(Nc1cc(-c2cn3nc(-c4cccnc4C(F)(F)F)ccc3n2)ccc1F)N1CC(F)(F)C1` [Example 684, 3,3-difluoro-N-(2-fluoro-5-(6-(2-(trifluoromethyl)pyridin-3-yl)imidazo[1,2-b]pyridazin-2-yl)phenyl)azetidine-1-carboxamide] were 0.356 µM and 0.095 µM.
The corresponding values for `Cn1cccc1-c1ccc2nc(-c3ccc(C(F)(F)F)c(NC(=O)C(C)(C)C)c3)cn2n1` [Example 379, N-(5-(6-(1-methyl-1H-pyrrol-2-yl)imidazo[1,2-b]pyridazin-2-yl)-2-(trifluoromethyl)phenyl)pivalamide] are 1.86 µM and more than 10 µM.
As to `CC(C)Oc1ccc(F)c(-c2ccc3nc(-c4ccc(C(F)(F)F)c(NC(=O)C(C)(C)C)c4)cn3n2)c1` [Example 252, N-(5-(6-(2-fluoro-5-isopropoxyphenyl)imidazo[1,2-b]pyridazin-2-yl)-2-(trifluoromethyl)phenyl)pivalamide], the results for the IC50 in test [1] (setting [4]) and in test [2] (setting [6]) were 0.392 µM and 0.722 µM, respectively.
Turning to `Cc1ccc(-c2cn3nc(-c4cccc(C=CC(=O)NO)c4)ccc3n2)cc1NC(=O)C(C)(C)C` [compound 559], the figures for the IC50 in test [1] (setting [4]) and in test [2] (setting [6]) were 0.604 µM and 0.322 µM, respectively.
As to `CC(C)(C)C(=O)Nc1cc(-c2cn3nc(N4CCC(O)C4)ccc3n2)ccc1C(F)(F)F` (centres unmarked) [Example 467, N-(5-(6-(3-hydroxypyrrolidin-1-yl)imidazo[1,2-b]pyridazin-2-yl)-2-(trifluoromethyl)phenyl)pivalamide], the IC50 in test [1] (10T1/2/Smo#3 cells, measured by ALP activity, read-out: ALP (IC50, inhibition of Hedgehog pathway activation)) turned out to be 0.114 µM; in test [2] (hShh activation, read-out: Shh (IC50, inhibition of Hedgehog pathway activation)), 0.115 µM.
Take `Cc1ccc(-c2cn3nc(Cl)ccc3n2)cc1NC(=O)C(C)(C)C(F)(F)F` [Example 122, N-(5-(6-chloroimidazo[1,2-b]pyridazin-2-yl)-2-methylphenyl)-3,3,3-trifluoro-2,2-dimethylpropanamide]: the IC50 in test [1] (setting [4]) is 1.94 µM; in test [2] (setting [6]) it was 3.04 µM.
As to `CC(C)OC(=O)Nc1cc(-c2cn3nc(-c4cccnc4C(F)(F)F)ccc3n2)ccc1F` [Example 683, isopropyl 2-fluoro-5-(6-(2-(trifluoromethyl)pyridin-3-yl)imidazo[1,2-b]pyridazin-2-yl)phenylcarbamate], the IC50 stood at 2.55 µM in test [1] (setting [4]) and 0.559 µM in test [2] (setting [6]).
Take `CC(C)(C)C(=O)Nc1cc(-c2cn3nc(OC4CCC(O)CC4)ccc3n2)ccc1C(F)(F)F` (centres unmarked) [Example 375, N-(5-(6-(4-hydroxycyclohexyloxy)imidazo[1,2-b]pyridazin-2-yl)-2-(trifluoromethyl)phenyl)pivalamide]: the IC50 in test [1] (setting [4]) was determined as 0.372 µM; in test [2] (setting [6]) it was 0.316 µM.
The corresponding values for `COC(=O)C=Cc1ccc(Cl)c(-c2ccc3nc(-c4ccc(C)c(NC(=O)C(C)(C)C)c4)cn3n2)c1` [compound 573] are 1.04 µM and 0.07 µM.
The corresponding values for `CCc1ccc(-c2cn3nc(-c4cccnc4C(F)(F)F)ccc3n2)cc1NC(=O)N1CCCC1` [Example 694, N-(2-ethyl-5-(6-(2-(trifluoromethyl)pyridin-3-yl)imidazo[1,2-b]pyridazin-2-yl)phenyl)pyrrolidine-1-carboxamide] are 0.174 µM and 0.339 µM.
Take `CNC(=O)c1cccc(-c2ccc3nc(-c4ccc(C)c(NC(=O)C(C)(C)C)c4)cn3n2)c1` [Example 453, N-methyl-3-(2-(4-methyl-3-pivalamidophenyl)imidazo[1,2-b]pyridazin-6-yl)benzamide]: the IC50 in test [1] (setting [4]) worked out at 0.751 µM; in test [2] (setting [6]), 0.582 µM.
`Cc1ccc(-c2cn3nc(-c4ccc(NC(=O)CCCCC(=O)NO)cc4C(F)(F)F)ccc3n2)cc1NC(=O)C(C)(C)C` [compound 531]: the values for the IC50 in test [1] (setting [4]) and in test [2] (setting [6]) were 1.14 µM and 0.586 µM, respectively.
As for `Fc1ccc(CN2CCN(c3ccc4nc(-c5ccccc5)c(Cl)n4n3)CC2)cc1` [Example 144, 3-chloro-6-(4-(4-fluorobenzyl)piperazin-1-yl)-2-phenylimidazo[1,2-b]pyridazine], the IC50 was 3 to 30 µM in test [1] (setting [3]); 3.97 µM in test [1] (setting [4]); 3 to 30 µM in test [2] (setting [5]); more than 10 µM in test [2] (setting [6]); 3 to 30 µM in test [2] (setting [7]).
Consider `Cc1c(-c2ccccc2)nc2ccc(N3CCN(C(=O)Cc4ccccc4)CC3)nn12` [Example 155, 1-(4-(3-methyl-2-phenylimidazo[1,2-b]pyridazin-6-yl)piperazin-1-yl)-2-phenylethanone], for which the IC50 in test [1] (setting [3]) is 0.3 to 3 µM; in test [1] (setting [4]) it was 1.27 µM; in test [2] (setting [5]), less than 0.3 µM; in test [2] (setting [6]), 2.1 µM; in test [2] (setting [7]), 0.3 to 3 µM.
For the molecule `CC(C)(C)OC(=O)n1cccc1-c1ccc2nc(-c3ccc(C(F)(F)F)c(NC(=O)C(C)(C)C)c3)cn2n1` [Example 178, tert-butyl 2-(2-(3-pivalamido-4-(trifluoromethyl)phenyl)imidazo[1,2-b]pyridazin-6-yl)-1H-pyrrole-1-carboxylate], the IC50 is 0.607 µM in test [1] (setting [4]) and 0.468 µM in test [2] (setting [6]).
Taken in the same sequence, the figures for `Cc1ccc(-c2cn3nc(-c4ccc(-c5ccc(Cl)nc5)nc4)ccc3n2)cc1NC(=O)C(C)(C)C` [Example 401, N-(5-(6-(6′-chloro-2,3′-bipyridin-5-yl)imidazo[1,2-b]pyridazin-2-yl)-2-methylphenyl)pivalamide] were 0.234 µM and 0.4 µM.
The corresponding values for `CC(=O)Nc1ccccc1-c1ccc2nc(-c3ccc(C)c(NC(=O)C(C)(C)C)c3)cn2n1` [Example 289, N-(5-(6-(2-acetamidophenyl)imidazo[1,2-b]pyridazin-2-yl)-2-methylphenyl)pivalamide] are 0.09 µM and 0.284 µM.
